How the values were obtained:
Assay type in all cases: in vivo
Lacg = assay: plant injury after spraying emerged plants (Table D); set-up: scale not given here
Excerpt: (§1) Topsoil (silt loam) is sieved through a screen having 1.27 cm openings. […] This mixture is steam sterilized and then placed in aluminum pans 6.985 cm deep having ten holes in the bottom each 0.635 cm in diameter. The soil mixture is compacted to a depth of 1.27 cm. from the top of the pan. A predetermined number of seeds of each of several dicotyledonous and monocotyledonous annual plant species and/or vegetative propagules for the perennial plant species are placed on the soil and pressed into the soil surface. The seeds and/or vegetative propagules are covered with 1.27 cm of a mixture of 50% topsoil and 50% of a mixture of Canadian sphagnum peat moss, vermiculite and a wetting agent. The pans are then placed on a capillary mat on a greenhouse bench and subirrigated as needed.
(§2) In the following Table D the legends used to identify the plant species are the same as those used in the preceding Table B.

Grft = assay: as above; set-up: scale not given here
Excerpt: as §1, §2

Cobu = assay: as above; set-up: scale not given here
Excerpt: as §1, §2

Prmi = assay: as above; set-up: scale not given here
Excerpt: as §1, §2

Rice = assay: as above; set-up: scale not given here
Excerpt: as §1, §2

Whez = assay: as above; set-up: scale not given here
Excerpt: as §1, §2

Sobe = assay: as above; set-up: scale not given here
Excerpt: as §1, §2

Bygr = assay: as above; set-up: scale not given here
Excerpt: as §1, §2

Corn = assay: as above; set-up: scale not given here
Excerpt: as §1, §2

Grso = assay: as above; set-up: scale not given here
Excerpt: as §1, §2

Mogl = assay: as above; set-up: scale not given here
Excerpt: as §1, §2

Velvetleaf = assay: Pre-emergent herbicidal activity (Table A); conditions: Abutilon theophrasti, pre-emergence, Vele, 11.2 kg/ha, 10-14 days, read-out: herbicidal rating (% inhibition)
Method in brief: (§3)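 Percent inhibition per species, scored on a rating scale, after pre-emergent soil incorporation: test compound in acetone or water carrier mixed into cover soil, layered over seeded topsoil or vegetative propagules.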

Downy Brome = assay: Pre-emergent herbicidal activity (Table A); conditions: Bromus tectorum, pre-emergence, Dobr, 11.2 kg/ha, 10-14 days, read-out: herbicidal rating (% inhibition)
Method in brief: as §3

Barnyardgrass = assay: Pre-emergent herbicidal activity (Table A); conditions: Echinochloa crus-galli, pre-emergence, Bygr, 11.2 kg/ha, 10-14 days, read-out: herbicidal rating (% inhibition)
Method in brief: as §3

Morningglory = assay: Pre-emergent herbicidal activity (Table A); conditions: Ipomoea, pre-emergence, Mogl, 11.2 kg/ha, 10-14 days, read-out: herbicidal rating (% inhibition)
Method in brief: as §3

Yellow Nutsedge = assay: Pre-emergent herbicidal activity (Table A); conditions: Cyperus, pre-emergence, Yens, 11.2 kg/ha, 10-14 days, read-out: herbicidal rating (% inhibition)
Method in brief: as §3

Cocklebur = assay: Pre-emergent herbicidal activity (Table A); conditions: Xanthium strumarium, pre-emergence, Cobu, 11.2 kg/ha, 10-14 days, read-out: herbicidal rating (% inhibition)
Method in brief: as §3

COC(=O)c1c(OC)nc(C(F)(F)F)c(C(=O)Cl)c1CC1CC1 [Compound 113, 3-pyridinecarboxylic acid, 5-(chlorocarbonyl)-4-(cyclopropylmethyl)-2-methoxy-6-(trifluoromethyl)-, methyl ester]
plant injury rating, Lacg (Lacg; 0.2803 kg/ha): 0 | plant injury rating, Lacg (Lacg; 1.1210 kg/ha): 0 | plant injury rating, Lacg (Lacg; 5.6050 kg/ha): 2 | plant injury rating, Grft (Grft; 0.2803 kg/ha): 0 | plant injury rating, Grft (Grft; 1.1210 kg/ha): 0 | plant injury rating, Grft (Grft; 5.6050 kg/ha): 0 | plant injury rating, Cobu (Cobu; 0.2803 kg/ha): 0 | plant injury rating, Cobu (Cobu; 1.1210 kg/ha): 0 | plant injury rating, Cobu (Cobu; 5.6050 kg/ha): 0 | plant injury rating, Prmi (Prmi; 0.2803 kg/ha): 0 | plant injury rating, Prmi (Prmi; 1.1210 kg/ha): 0 | plant injury rating, Prmi (Prmi; 5.6050 kg/ha): 0 | plant injury rating, Rice (Rice; 0.2803 kg/ha): 0 | plant injury rating, Rice (Rice; 1.1210 kg/ha): 0 | plant injury rating, Rice (Rice; 5.6050 kg/ha): 0 | plant injury rating, Whez (Whez; 0.2803 kg/ha): 0 | plant injury rating, Whez (Whez; 1.1210 kg/ha): 0 | plant injury rating, Whez (Whez; 5.6050 kg/ha): 0 | plant injury rating, Sobe (Sobe; 0.2803 kg/ha): 0 | plant injury rating, Sobe (Sobe; 1.1210 kg/ha): 0 | plant injury rating, Sobe (Sobe; 5.6050 kg/ha): 1 | plant injury rating, Bygr (Bygr; 0.2803 kg/ha): 0 | plant injury rating, Bygr (Bygr; 1.1210 kg/ha): 0 | plant injury rating, Bygr (Bygr; 5.6050 kg/ha): 0 | plant injury rating, Corn (Corn; 0.2803 kg/ha): 0 | plant injury rating, Corn (Corn; 1.1210 kg/ha): 0 | plant injury rating, Corn (Corn; 5.6050 kg/ha): 0 | plant injury rating, Grso (Grso; 0.2803 kg/ha): 0 | plant injury rating, Grso (Grso; 1.1210 kg/ha): 0 | plant injury rating, Grso (Grso; 5.6050 kg/ha): 0 | plant injury rating, Mogl (Mogl; 0.2803 kg/ha): 0 | plant injury rating, Mogl (Mogl; 1.1210 kg/ha): 0 | plant injury rating, Mogl (Mogl; 5.6050 kg/ha): 1 | inhibition at 11200 g/ha (Velvetleaf): 25 to 49% | inhibition at 11200 g/ha (Downy Brome): 75 to 100% | inhibition at 11200 g/ha (Barnyardgrass): 75 to 100% | inhibition at 11200 g/ha (Morningglory): 25 to 49% | inhibition at 11200 g/ha (Yellow Nutsedge): 0 to 24% | inhibition at 11200 g/ha (Cocklebur): 0 to 24%

COC(=O)c1c(OC)nc(C(F)(F)F)c(C2SCCS2)c1CC(C)C [Compound 93, 3-pyridinecarboxylic acid, 5-(1,3-dithiolan-2-yl)-2-methoxy-4-(2-methylpropyl)-6-(trifluoromethyl)-, methyl ester]
plant injury rating, Lacg (Lacg; 0.2803 kg/ha): 2 | plant injury rating, Lacg (Lacg; 1.1210 kg/ha): 3 | plant injury rating, Lacg (Lacg; 5.6050 kg/ha): 3 | plant injury rating, Grft (Grft; 0.0701 kg/ha): 0 | plant injury rating, Grft (Grft; 0.2803 kg/ha): 0 | plant injury rating, Grft (Grft; 1.1210 kg/ha): 0 | plant injury rating, Grft (Grft; 5.6050 kg/ha): 1 | plant injury rating, Cobu (Cobu; 0.0701 kg/ha): 0 | plant injury rating, Cobu (Cobu; 0.2803 kg/ha): 0 | plant injury rating, Cobu (Cobu; 1.1210 kg/ha): 2 | plant injury rating, Cobu (Cobu; 5.6050 kg/ha): 3 | plant injury rating, Prmi (Prmi; 0.0701 kg/ha): 0 | plant injury rating, Prmi (Prmi; 0.2803 kg/ha): 0 | plant injury rating, Prmi (Prmi; 1.1210 kg/ha): 0 | plant injury rating, Prmi (Prmi; 5.6050 kg/ha): 0 | plant injury rating, Rice (Rice; 0.0701 kg/ha): 0 | plant injury rating, Rice (Rice; 0.2803 kg/ha): 0 | plant injury rating, Rice (Rice; 1.1210 kg/ha): 0 | plant injury rating, Rice (Rice; 5.6050 kg/ha): 0 | plant injury rating, Whez (Whez; 0.0701 kg/ha): 0 | plant injury rating, Whez (Whez; 0.2803 kg/ha): 0 | plant injury rating, Whez (Whez; 1.1210 kg/ha): 0 | plant injury rating, Whez (Whez; 5.6050 kg/ha): 0 | plant injury rating, Sobe (Sobe; 0.0701 kg/ha): 0 | plant injury rating, Sobe (Sobe; 0.2803 kg/ha): 1 | plant injury rating, Sobe (Sobe; 1.1210 kg/ha): 2 | plant injury rating, Sobe (Sobe; 5.6050 kg/ha): 3 | plant injury rating, Bygr (Bygr; 0.0701 kg/ha): 0 | plant injury rating, Bygr (Bygr; 0.2803 kg/ha): 0 | plant injury rating, Bygr (Bygr; 1.1210 kg/ha): 0 | plant injury rating, Bygr (Bygr; 5.6050 kg/ha): 2 | plant injury rating, Corn (Corn; 0.0701 kg/ha): 0 | plant injury rating, Corn (Corn; 0.2803 kg/ha): 3 | plant injury rating, Corn (Corn; 1.1210 kg/ha): 3 | plant injury rating, Corn (Corn; 5.6050 kg/ha): 3 | plant injury rating, Grso (Grso; 0.0701 kg/ha): 0 | plant injury rating, Grso (Grso; 0.2803 kg/ha): 0 | plant injury rating, Grso (Grso; 1.1210 kg/ha): 0 | plant injury rating, Grso (Grso; 5.6050 kg/ha): 2 | plant injury rating, Mogl (Mogl; 0.0701 kg/ha): 0 | plant injury rating, Mogl (Mogl; 0.2803 kg/ha): 2 | plant injury rating, Mogl (Mogl; 1.1210 kg/ha): 2 | plant injury rating, Mogl (Mogl; 5.6050 kg/ha): 3 | inhibition at 11200 g/ha (Velvetleaf): 75 to 100% | inhibition at 11200 g/ha (Downy Brome): 75 to 100% | inhibition at 11200 g/ha (Barnyardgrass): 75 to 100% | inhibition at 11200 g/ha (Morningglory): 75 to 100% | inhibition at 11200 g/ha (Yellow Nutsedge): 0 to 24% | inhibition at 11200 g/ha (Cocklebur): 0 to 24%

COC(=O)c1c(OC)nc(C(F)(F)F)c(C2=NCCS2)c1CC(C)C [Compound 50, 3-pyridinecarboxylic acid, 5-(4,5-dihydro-2-thiazolyl)-2-methoxy-4-(2-methylpropyl)-6-(trifluoromethyl)-, methyl ester]
plant injury rating, Lacg (Lacg; 0.2803 kg/ha): 3 | plant injury rating, Lacg (Lacg; 1.1210 kg/ha): 3 | plant injury rating, Lacg (Lacg; 5.3808 kg/ha): 3 | plant injury rating, Grft (Grft; 0.0701 kg/ha): 0 | plant injury rating, Grft (Grft; 0.2803 kg/ha): 1 | plant injury rating, Grft (Grft; 1.1210 kg/ha): 1 | plant injury rating, Grft (Grft; 5.3808 kg/ha): 2 | plant injury rating, Cobu (Cobu; 0.0701 kg/ha): 0 | plant injury rating, Cobu (Cobu; 0.2803 kg/ha): 1 | plant injury rating, Cobu (Cobu; 1.1210 kg/ha): 2 | plant injury rating, Cobu (Cobu; 5.3808 kg/ha): 3 | plant injury rating, Prmi (Prmi; 0.0701 kg/ha): 0 | plant injury rating, Prmi (Prmi; 0.2803 kg/ha): 1 | plant injury rating, Rice (Rice; 0.0701 kg/ha): 0 | plant injury rating, Rice (Rice; 0.2803 kg/ha): 0 | plant injury rating, Rice (Rice; 1.1210 kg/ha): 1 | plant injury rating, Rice (Rice; 5.3808 kg/ha): 0 | plant injury rating, Whez (Whez; 0.0701 kg/ha): 0 | plant injury rating, Whez (Whez; 0.2803 kg/ha): 0 | plant injury rating, Whez (Whez; 1.1210 kg/ha): 0 | plant injury rating, Whez (Whez; 5.3808 kg/ha): 0 | plant injury rating, Sobe (Sobe; 0.0701 kg/ha): 0 | plant injury rating, Sobe (Sobe; 0.2803 kg/ha): 1 | plant injury rating, Sobe (Sobe; 1.1210 kg/ha): 2 | plant injury rating, Sobe (Sobe; 5.3808 kg/ha): 3 | plant injury rating, Bygr (Bygr; 0.0701 kg/ha): 0 | plant injury rating, Bygr (Bygr; 0.2803 kg/ha): 0 | plant injury rating, Bygr (Bygr; 1.1210 kg/ha): 1 | plant injury rating, Corn (Corn; 0.0701 kg/ha): 0 | plant injury rating, Corn (Corn; 0.2803 kg/ha): 0 | plant injury rating, Grso (Grso; 0.0701 kg/ha): 0 | plant injury rating, Grso (Grso; 0.2803 kg/ha): 0 | plant injury rating, Grso (Grso; 1.1210 kg/ha): 0 | plant injury rating, Mogl (Mogl; 0.0701 kg/ha): 1 | plant injury rating, Mogl (Mogl; 0.2803 kg/ha): 2 | plant injury rating, Mogl (Mogl; 1.1210 kg/ha): 2 | plant injury rating, Mogl (Mogl; 5.3808 kg/ha): 3 | inhibition at 11200 g/ha (Velvetleaf): 75 to 100% | inhibition at 11200 g/ha (Downy Brome): 75 to 100% | inhibition at 11200 g/ha (Barnyardgrass): 75 to 100% | inhibition at 11200 g/ha (Morningglory): 75 to 100% | inhibition at 11200 g/ha (Yellow Nutsedge): 75 to 100% | inhibition at 11200 g/ha (Cocklebur): 75 to 100%

Reference: US5391540A, “Substituted pyridine compounds” (Rohm and Haas Company, priority 1993, dated 1995)
